Among the data in PubChem BioAssay AID1208 (EPA DSSTox, 2008) are outcome and Potency values, retold here.

The subject of the data set is rat chronic carcinogenicity bioassay, TD50. As to the kind of experiment: DSSTox (CPDBAS) Carcinogenic Potency Database Summary Rat Bioassay Results. Conditions: for outcome: TD50_Rat_Note: no positive results; for Potency: hits give low values. The source says: The Carcinogenic Potency Database (CPDB) is a unique and widely used international resource of the results of over 6500 chronic, long-term animal cancer tests on over 1500 chemical substances. The CPDB provides easy access to the bioassay literature, with qualitative and quantitative analyses of both positive and negative experiments that have been published over the past 50 years in the general literature and by the National Cancer Institute/National Toxicology Program. The CPDB standardizes the diverse literature of cancer bioassays that vary widely in protocol, histopathological examination and nomenclature, and in the published author's choices of what information to provide in their papers. Results are reported in the CPDB for tests in rats, mice, hamsters, dogs, and nonhuman primates, and are based on the most positive result among all experiments for each sex-species. The DSSTox CPDBAS (all species) file incorporates data from the CPDB Summary Tables for the full list of over 1500 chemical substances tested in at least one species. Summary bioassay results for Rat (TD50, tumor sites, male, female, both sexes) are provided in the CPDB Summary Tables and the DSSTox CPDBAS file for over 1200 chemical substances.
TD50 is a standardized quantitative measure of carcinogenic potency (analogous to an LD50) and is reported in the CPDB Summary Table for each species. Activity Score for actives is computed by mapping of LOG10 (1/TD50_Rat_mmol) activity values spanning range [MIN, MAX] onto Integer 1-100 Activity Score range, where 100 is highest potency and 1 is lowest: Activity Score = 100 * INTEGER[(log10(1/Activity) - MIN)/(MAX - MIN)]. If activity is reported but no TD50_Rat_mmol value is computed, such as for a mixture, the Activity Score is assigned the activity value "50". […] Target sites are reported for each sex-species group with a positive result in the CPDB on the basis of a positive author's opinion for the particular site, using all results from both the general literature and NCI/NTP bioassays. If a chemical has two or more target sites listed, the results may be from different experiments, and a single site may be a target organ in more than one experiment, as well. Blank entry in TargetSites field indicates no results reported.

Where [1] appears, read: TargetSites_Rat_Female: no positive results.

The source made the active and inactive calls.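 Rule for the calls: active = at least one rat sex group has a carcinogenic potency value and tumor site recorded; inconclusive = only rat studies were judged inadequate by the national testing program; inactive = no potency or tumor site, with negative rat experiments.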

Consider `CC(CN1c2ccccc2Sc2ccccc21)N(C)C` (stereo not drawn), for which the outcome under setting [1] was “inactive; no positive results”. Turning to `NC(N)=O`, the outcome under setting [1] was “inactive; no positive results”. Still for that read-out and setting: with `CCOP(=S)(OCC)SC1OCCOC1SP(=S)(OCC)OCC` (stereo not drawn) the entry was “inactive; no positive results”. In the case of `CCCN(CCC)c1c([N+](=O)[O-])cc(C(F)(F)F)cc1[N+](=O)[O-]`, the outcome under setting [1] is “inactive; no positive results”. With `O=C(O)c1cc(N=Nc2ccc(S(=O)(=O)Nc3ccccn3)cc2)ccc1O`, for the setting “TD50_Rat_Note: TD50 is harmonic mean of more than one positive test, TargetSites_Rat_Female: kidney, urinary bladder”, the Potency was 1590 mg/kg/day. As for `C=CC=C`, the Potency (TD50_Rat_Note: TD50 is harmonic mean of more than one positive test, greater than ten-fold variation among TD50 values for positive res, TargetSites_Rat_Female: mammary gland) is 261 mg/kg/day. As to `CC(C)=CCl`, the Potency (TD50_Rat_Note: TD50 is harmonic mean of more than one positive test, TargetSites_Rat_Female: esophagus, nasal cavity, oral cavity, stomach) is 31.8 mg/kg/day. Turning to `CCCc1ccc2c(c1)OCO2`, the Potency (TargetSites_Rat_BothSexes: esophagus) is 143 mg/kg/day. For `CCCC(Cl)CCC(Cl)CCC(Cl)CCC(Cl)CCC(Cl)CCC(Cl)CCC(C)Cl` (stereo not drawn), the outcome under setting [1] is “inactive; no positive results”. Regarding `C=CCN(CC=C)N=O`, the Potency (TD50_Rat_Note: TD50 is harmonic mean of more than one positive test, TargetSites_Rat_Female: nasal cavity) was 33.9 mg/kg/day. With `O=[N+]([O-])c1ccc2c3c(cccc13)CC2`, the Potency (TD50_Rat_Note: TD50 is harmonic mean of more than one positive test, TargetSites_Rat_Female: clitoral gland, ear Zymbals gland, lung, mammary gland) was 8.67 mg/kg/day. As for `CC(O)CN(CC(O)CO)N=O` (stereo not drawn), the Potency (TargetSites_Rat_Female: esophagus, oral cavity, stomach) is 0.0535 mg/kg/day. Regarding `COC(=O)C1=C(C)NC(C)=C(C(=O)OCCN2CCN(C(c3ccccc3)c3ccccc3)CC2)C1c1cccc([N+](=O)[O-])c1` (stereo not drawn), the outcome under setting [1] was “inactive; no positive results”. Take `O=S(=O)(c1ccc(Cl)cc1)c1ccc(Cl)cc1`: under setting [1], the outcome is “inactive; no positive results”. As for `CC(=O)CN(N=O)C(N)=O`, the outcome under setting [1] was “inactive; no positive results”. Regarding `ClC1=C(Cl)C2(Cl)C3C(Cl)C=CC3C1(Cl)C2(Cl)Cl` (stereo not drawn), the outcome under setting [1] was “inactive; no positive results”.

As to `ClC(Cl)=C(Cl)C(Cl)=C(Cl)Cl`, the Potency (TD50_Rat_Note: TD50 is harmonic mean of more than one positive test, TargetSites_Rat_Female: kidney) is 65.8 mg/kg/day.

As to `N[C@@H](Cc1c[nH]c2ccccc12)C(=O)O`, the outcome under setting [1] was “inactive; no positive results”. With `O=NN(c1ccccc1)c1ccccc1`, the Potency (TD50_Rat_Note: TD50 is harmonic mean of more than one positive test, TargetSites_Rat_Female: urinary bladder) was 167 mg/kg/day. For the molecule `Clc1ccccc1Cl`, under setting [1], the outcome is “inactive; no positive results”. In the case of `CC1CCC(C(C)C)C(O)C1` (stereo not drawn), the outcome under setting [1] was “inactive; no positive results”. On to `C[C@@H]1Cc2c(Cl)cc(C(=O)N[C@@H](Cc3ccccc3)C(=O)O)c(O)c2C(=O)O1`, for which, where the note is “TD50_Rat_Note: TD50 is harmonic mean of more than one positive test, TargetSites_Rat_Female: kidney, mammary gland”, the Potency is 0.136 mg/kg/day.

As for `O=c1cc[nH]c(=O)[nH]1`, the Potency (TD50_Rat_Note: TD50 is harmonic mean of more than one positive test, greater than ten-fold variation among TD50 values for positive res, TargetSites_Rat_Female: urinary bladder) is 671 mg/kg/day.

Take `NCCNc1cccc2ccccc12`: under setting [1], the outcome was “inactive; no positive results”.

Take `CCn1c2ccccc2c2cc(N)ccc21`: the Potency is, setting by setting: (TD50_Rat_Note: TD50 is harmonic mean of more than one positive test, TD50_Rat_mmol was not calculated for this mixture, but Activiity S, TargetSites_Rat_Female: ear Zymbals gland) 26.4 mg/kg/day; (TD50_Rat_Note: TD50 is harmonic mean of more than one positive test, TargetSites_Rat_Female: ear Zymbals gland, liver, uterus) 57.2 mg/kg/day. On to `O=C1CCO1`, for which the Potency (TD50_Rat_Note: TD50 is harmonic mean of more than one positive test, TargetSites_Rat_Female: stomach) was 1.46 mg/kg/day. On to `CCC1(CC)C(=O)N=C(O)NC1=O`, for which the Potency (TD50_Rat_Note: TD50 is harmonic mean of more than one positive test, TargetSites_Rat_Female: no positive results) was 45.7 mg/kg/day. As for `CC1=C2C(=CO[C@@H](C)[C@@H]2C)C(=O)C(C(=O)O)=C1O`, under “TD50_Rat_Note: TD50 value is overestimated as upper 99% confidence limit from study with 100% tumor incidence but no lifetable, TD50 is”, the Potency was 7.48 mg/kg/day. Regarding `CCCCCCCCCCCCN(C)N=O`, under “TD50_Rat_Note: TD50 is harmonic mean of more than one positive test, harmonic mean of TD50 includes a value for upper 99% confidence li, TargetSites_Rat_Female: urinary bladder”, the Potency was 0.537 mg/kg/day.

For the molecule `Clc1cc(Cl)cc(-c2cc(Cl)cc(Cl)c2)c1`, the result under setting [1] was inactive. For the molecule `[Cd+2].[Cl-].[Cl-]`, the Potency (TD50_Rat_Note: TD50 is harmonic mean of more than one positive test, greater than ten-fold variation among TD50 values for positive res, TargetSites_Rat_Female: lung) is 0.0136 mg/kg/day. In the case of `Nc1cc(S(=O)(=O)O)cc2cc(S(=O)(=O)O)c(N=Nc3ccc(-c4ccc(N=Nc5c(S(=O)(=O)O)cc6cc(S(=O)(=O)O)cc(N)c6c5O)cc4)cc3)c(O)c12`, where the note is “TD50_Rat_Note: TD50 is harmonic mean of more than one positive test, TargetSites_Rat_Female: liver”, the Potency was 1.73 mg/kg/day.

As for `O=Nc1ccc(Nc2ccccc2)cc1`, the Potency under setting [1] was 201 mg/kg/day. Take `O=S(=O)([O-])[O-].[Cd+2]`: where the note is “TD50_Rat_Note: TD50 is harmonic mean of more than one positive test, TargetSites_Rat_Female: lung”, the Potency was 0.0217 mg/kg/day. In the case of `COc1cc2c(c3oc4cccc(O)c4c(=O)c13)C1C=COC1O2` (stereo not drawn), the Potency (TD50_Rat_Note: TD50 is harmonic mean of more than one positive test, greater than ten-fold variation among TD50 values for positive res, TargetSites_Rat_BothSexes: liver) was 0.152 mg/kg/day. As to `CCOc1ccc(NC(C)=O)cc1[N+](=O)[O-]`, the outcome under setting [1] is “inactive; no positive results”.

Regarding `Clc1cnc(Oc2ccc(Oc3ncc(Cl)cc3Cl)cc2)c(Cl)c1`, the outcome was “inactive; no positive results”. On the same count and under the same terms, as for `S=C=NCCCc1ccccc1`, the entry is “inactive; no positive results”. With `O=C1NC(c2ccc([N+](=O)[O-])s2)Nc2ccccc21` (stereo not drawn), for the setting “TargetSites_Rat_Female: all tumor bearing animals”, the Potency is 1.53 mg/kg/day.

For `CCCCCc1cc(O)c2c(c1)OC(C)(C)[C@@H]1CCC(C)=C[C@@H]21`, the outcome under setting [1] is “inactive; no positive results”. Regarding `O=C(O)c1ccc([N+](=O)[O-])cc1`, for the setting “TargetSites_Rat_Female: clitoral gland”, the Potency was 287 mg/kg/day. Consider `CCc1nc(N)nc(N)c1-c1ccc(Cl)cc1`, for which the outcome under setting [1] was “inactive; no positive results”.
